Our source for the T/C values is PubChem BioAssay AID198 (DTP/NCI, 2004).

The assay has as its system B16 melanoma ip, C57BL/6 mice, median survival T/C. As to the kind of experiment: NCI In Vivo Anticancer Drug Screen. Data for tumor model B16 Melanoma (intraperitoneal) in C57BL/6 mice. Conditions: endpoint: median survival time, higher = longer survival. The protocol: The antitumor activity of compounds was measured in mice bearing transplantable tumors. Survival or tumor size were measured and the results are expressed as the measurement made in the treated group (T) divided by the measurement made in the vehicle treated control group (C). The tumor model used in this assay is B16 Melanoma (intraperitoneal) in C57BL/6 mice

Where [1] appears, read: dose: 1.5 mg/kg/injection, schedule: Q01DX009 (ip), vehicle: saline.
Setting [2] is: dose: 3.0 mg/kg/injection, schedule: Q01DX009 (ip), vehicle: saline.
Setting [3] is: dose: 1.56 mg/kg/injection, schedule: Q01DX009 (ip), vehicle: saline.
Setting [4] is: dose: 3.13 mg/kg/injection, schedule: Q01DX009 (ip), vehicle: saline.
[5] abbreviates: dose: 6.25 mg/kg/injection, schedule: Q01DX009 (ip), vehicle: saline.
Where [6] appears, read: dose: 12.5 mg/kg/injection, schedule: Q01DX009 (ip), vehicle: saline.
Setting [7] is: dose: 25.0 mg/kg/injection, schedule: Q01DX009 (ip), vehicle: saline.
Where [8] appears, read: dose: 50.0 mg/kg/injection, schedule: Q01DX009 (ip), vehicle: saline.
The mark [9] stands for this setting: dose: 100.0 mg/kg/injection, schedule: Q01DX009 (ip), vehicle: saline.
Setting [10] is: dose: 200.0 mg/kg/injection, schedule: Q01DX009 (ip), vehicle: saline.
Where [11] appears, read: dose: 25.0 mg/kg/injection, schedule: Q01DX009 (ip), vehicle: saline with Tween-80.
Setting [12] is: dose: 50.0 mg/kg/injection, schedule: Q01DX009 (ip), vehicle: saline with Tween-80.
Where [13] appears, read: dose: 0.25 mg/kg/injection, schedule: Q01DX009 (ip), vehicle: saline.
The mark [14] stands for this setting: dose: 0.5 mg/kg/injection, schedule: Q01DX009 (ip), vehicle: saline.
[15] abbreviates: dose: 1.0 mg/kg/injection, schedule: Q01DX009 (ip), vehicle: saline.
The mark [16] stands for this setting: dose: 10.0 mg/kg/injection, schedule: Q01DX009 (ip), vehicle: saline.

Several values for one entry are separate records, joined by “and”; a condition that tells them apart may be missing. Equal values may be shown once. Inconclusive results and toxic doses are left out.

For `CC1CCC(NC(=O)N(CCCl)N=O)CC1` (stereo not given), the T/C (dose: 1.9 mg/kg/injection, schedule: Q01DX001 (ip), vehicle: saline) was 100 % of control; the T/C (dose: 3.75 mg/kg/injection, schedule: Q01DX001 (ip), vehicle: saline) was 112 % of control; the T/C (dose: 7.5 mg/kg/injection, schedule: Q01DX001 (ip), vehicle: saline) was 103 % of control; the T/C (dose: 15.0 mg/kg/injection, schedule: Q01DX001 (ip), vehicle: saline) is 115 % of control.
As for `CC1OC(O[C@@H]2C=C3CC[C@@H]4[C@H](CC[C@]5(C)[C@@H](c6ccc(=O)oc6)CC[C@]45O)[C@@]3(C)CC2)C(O)C(O)C1O` (stereo not given in full), the T/C is 113 % of control (dose: 2.5 mg/kg/injection, schedule: Q01DX009 (sc), vehicle: steriod suspending solution) and 97 % of control (dose: 5.0 mg/kg/injection, schedule: Q01DX009 (sc), vehicle: steriod suspending solution).
Regarding `CN(Cc1cnc2nc(N)nc(N)c2n1)c1ccc(C(=O)N[C@@H](CCC(=O)O)C(=O)O)cc1`, the T/C runs as follows: (dose: 0.38 mg/kg/injection, schedule: Q01DX009 (ip), vehicle: saline) 100 % of control and 106 % of control; (dose: 0.75 mg/kg/injection, schedule: Q01DX009 (ip), vehicle: saline) 100 % of control and 106 % of control; under setting [1], 93 % of control and 100 % of control; under setting [2], 100 % of control.
Take `O=NN(CCCl)C(=O)Nc1ccc(CCO)cc1`: the T/C under setting [3] was 195 % of control and the T/C under setting [4] was 190 % of control.
On to `CS(=O)(=O)OCCCCOS(C)(=O)=O`, for which the T/C reads like this: (dose: 3.12 mg/kg/injection, schedule: Q01DX009 (ip), vehicle: saline) 103 % of control; under setting [5], 96 % of control; under setting [6], 106 % of control; under setting [7], 103 % of control.
Take `CNNCc1ccc(C(=O)NC(C)C)cc1`: the T/C under setting [8] was 121 % of control; the T/C under setting [9] is 121 % of control; the T/C under setting [10] was 110 % of control and 121 % of control.
With `CC(C)S(=O)(=O)/C(Cl)=C(/Cl)C(Cl)=C(Cl)Cl`, the T/C runs as follows: under setting [11], 94 % of control; under setting [12], 97 % of control.
For the compound `CCc1nc(N)nc(N)c1-c1ccc(Cl)cc1`, the T/C by setting is: under setting [7], 96 % of control; under setting [8], 100 % of control; under setting [9], 93 % of control; under setting [10], 113 % of control.
For the compound `CO[C@H](C(=O)[C@@H](O)[C@@H](C)O)[C@@H]1Cc2cc3cc(OC4CC(OC5CC(O)C(O)C(C)O5)C(O)C(C)O4)c(C)c(O)c3c(O)c2C(=O)[C@H]1OC1CC(OC2CC(OC3CC(C)(O)C(O)C(C)O3)C(O)C(C)O2)C(O)C(C)O1` (stereo not given in full), the T/C is, setting by setting: under setting [13], 106 % of control; under setting [14], 100 % of control; under setting [15], 113 % of control.
Consider `NC(=O)Oc1cc(OC(N)=O)cc(N(CCCl)CCCl)c1`, for which the T/C under setting [6] is 110 % of control and the T/C under setting [8] is 123 % of control.
Turning to `C1CN1c1nc(N2CC2)nc(N2CC2)n1`, the T/C (dose: 0.13 mg/kg/injection, schedule: Q01DX009 (ip), vehicle: saline) was 103 % of control and 116 % of control and 120 % of control; the T/C under setting [13] was 109 % of control and 120 % of control and 122 % of control; the T/C under setting [14] was 86 % of control; the T/C under setting [15] is 100 % of control.
As for `CC(=O)OC(C)(C)/C=C/C(=O)[C@](C)(O)[C@H]1[C@H](O)C[C@@]2(C)[C@@H]3CC=C4[C@@H](C[C@H](O)C(=O)C4(C)C)[C@]3(C)C(=O)C[C@]12C`, the T/C reads like this: (dose: 0.25 mg/kg/injection, schedule: Q01DX009 (ip), vehicle: saline with Tween-80) 92 % of control; (dose: 0.5 mg/kg/injection, schedule: Q01DX009 (ip), vehicle: saline with Tween-80) 100 % of control; (dose: 1.0 mg/kg/injection, schedule: Q01DX009 (ip), vehicle: saline with Tween-80) 92 % of control.
For the compound `COc1ccc(-c2c(C)c(C(=O)O)nc(-c3ccc4c(O)c(OC)c5c(c4n3)=NC(C)(C)N=5)c2N)c(O)c1OC`, the T/C under setting [16] is 124 % of control and the T/C (dose: 20.0 mg/kg/injection, schedule: Q01DX009 (ip), vehicle: saline) is 107 % of control.
For `CCSCCC(N)C(=O)O` (stereo not given), the T/C is 100 % of control under setting [8], 100 % of control under setting [9] and 90 % of control under setting [10].
For `c1ccc2sc(SSN3CC4CCC(CC4)C3)nc2c1`, the T/C by setting is: (dose: 12.5 mg/kg/injection, schedule: Q01DX009 (ip), vehicle: saline with Tween-80) 100 % of control; under setting [11], 94 % of control; under setting [12], 94 % of control; (dose: 100.0 mg/kg/injection, schedule: Q01DX009 (ip), vehicle: saline with Tween-80) 89 % of control; (dose: 200.0 mg/kg/injection, schedule: Q01DX009 (ip), vehicle: saline with Tween-80) 88 % of control.
`O=CC(S)CO` (stereo not given): the T/C is 120 % of control under setting [7] and 120 % of control under setting [8].
In the case of `O=C(O)CCCc1ccc(N(CCCl)CCCl)cc1`, the T/C reads like this: under setting [4], 96 % of control and 103 % of control; under setting [5], 100 % of control and 114 % of control; under setting [6], 106 % of control and 112 % of control; under setting [7], 86 % of control.
`COc1cc(N(CCCl)CCCl)ccc1NC(=O)c1ccccc1`: the T/C by setting is: under setting [3], 102 % of control; under setting [4], 115 % of control; under setting [5], 115 % of control.
For `COc1cc2c(cc1OC)C(c1cc(OC)c(OC)c(OC)c1)C1(O)C(=O)OCC1(O)C2` (stereo not given), the T/C runs as follows: under setting [8], 93 % of control; under setting [9], 93 % of control; under setting [10], 86 % of control; (dose: 400.0 mg/kg/injection, schedule: Q01DX009 (ip), vehicle: saline) 86 % of control.
With `CC1CC(C)(O)CC(C(O)CC2CC(=O)NC(=O)C2)C1=O` (stereo not given), the T/C (dose: 0.1 mg/kg/injection, schedule: Q01DX009 (ip), vehicle: saline) is 111 % of control; the T/C (dose: 0.2 mg/kg/injection, schedule: Q01DX009 (ip), vehicle: saline) was 122 % of control; the T/C (dose: 0.4 mg/kg/injection, schedule: Q01DX009 (ip), vehicle: saline) is 116 % of control; the T/C (dose: 0.8 mg/kg/injection, schedule: Q01DX009 (ip), vehicle: saline) is 86 % of control.
As for `N[C@@H](Cc1ccc(N(CCCl)CCCl)cc1)C(=O)O`, the T/C is 170 % of control and 228 % of control under setting [1]; 210 % of control under setting [2]; 226 % of control (dose: 6.0 mg/kg/injection, schedule: Q01DX009 (ip), vehicle: saline); 93 % of control (dose: 12.0 mg/kg/injection, schedule: Q01DX009 (ip), vehicle: saline).
`Nc1nc2n[nH]nc2c(=O)[nH]1`: the T/C was 100 % of control under setting [7], 103 % of control under setting [8], 86 % of control under setting [9] and 90 % of control under setting [10].
The corresponding values for `COc1c(C)c2c(c(O)c1C/C=C(\C)CCC(=O)O)C(=O)OC2` are 106 % of control, 113 % of control, 110 % of control and 106 % of control.
Turning to `Cn1cc(NC(=O)c2cc(NC(=O)CN=C(N)N)cn2C)cc1C(=O)NCCC(=N)N`, the T/C is, setting by setting: under setting [4], 100 % of control and 107 % of control; under setting [5], 100 % of control and 107 % of control; under setting [6], 100 % of control; under setting [7], 86 % of control.
Turning to `Nc1ccc(Cl)cc1N`, the T/C is, setting by setting: (dose: 12.5 mg/kg/injection, schedule: Q01DX009 (ip), vehicle: other) 106 % of control; (dose: 25.0 mg/kg/injection, schedule: Q01DX009 (ip), vehicle: other) 100 % of control; (dose: 50.0 mg/kg/injection, schedule: Q01DX009 (ip), vehicle: other) 100 % of control; (dose: 100.0 mg/kg/injection, schedule: Q01DX009 (ip), vehicle: other) 90 % of control.
For the compound `CN[C@H]1CCc2cc(OC)c(OC)c(OC)c2-c2ccc(OC)c(=O)cc21`, the T/C (dose: 1.25 mg/kg/injection, schedule: Q01DX009 (ip), vehicle: saline) was 100 % of control; the T/C (dose: 1.3 mg/kg/injection, schedule: Q01DX009 (ip), vehicle: saline) was 100 % of control; the T/C (dose: 2.5 mg/kg/injection, schedule: Q01DX009 (ip), vehicle: saline) was 100 % of control and 103 % of control; the T/C (dose: 5.0 mg/kg/injection, schedule: Q01DX009 (ip), vehicle: saline) was 93 % of control and 113 % of control; the T/C under setting [16] is 93 % of control.
Consider `N#CSCc1ccc(Cl)cc1Cl`, for which the T/C by setting is: under setting [11], 102 % of control; under setting [12], 100 % of control.
Regarding `N=[N+]=CC(=O)OCC(N)C(=O)O` (stereo not given), the T/C is 96 % of control under setting [4], 100 % of control under setting [5], 86 % of control under setting [6] and 90 % of control under setting [7].
